Data published in patent US5399568A, “Methanoanthrancenyl piperidyl antipsychotics” (Imperial Chemical Industries plc, priority 1991, dated 1995).

Columns and labels:
[1] = biological target: T1, dopamine (DA) D-2 receptor (Rattus norvegicus, UniProt P61169); assay: Test A: antagonism of [^3 H]-spiperone binding (D-2 receptor binding assay, rat striatal membranes); settings: 0.5 nM [^3 H] spiperone, 40 nM ketanserin, pH 7.7, 37° C., 15 min, typical values, read-out: IC50 (drug concentration which produced a 50% displacement of [^3 H] spiperone)
T1 construct: rat striatal membranes were used; from tissue; host or cells: rat striatum (membranes)
T1 sequence (P61169 whole entry): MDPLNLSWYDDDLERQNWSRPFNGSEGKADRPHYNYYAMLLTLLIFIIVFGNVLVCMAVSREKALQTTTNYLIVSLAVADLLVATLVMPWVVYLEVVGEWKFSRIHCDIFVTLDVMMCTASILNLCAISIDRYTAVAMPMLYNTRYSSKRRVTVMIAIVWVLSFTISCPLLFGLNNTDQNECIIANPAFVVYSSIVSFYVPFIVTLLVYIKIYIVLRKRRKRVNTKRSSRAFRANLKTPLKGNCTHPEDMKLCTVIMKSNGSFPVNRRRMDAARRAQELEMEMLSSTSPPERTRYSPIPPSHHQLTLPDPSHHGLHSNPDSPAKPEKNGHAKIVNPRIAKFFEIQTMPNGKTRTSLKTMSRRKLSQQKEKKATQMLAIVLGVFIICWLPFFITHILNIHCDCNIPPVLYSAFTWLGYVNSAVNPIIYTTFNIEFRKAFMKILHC
Text: (§1) The compounds of Formula I are antagonists of dopamine D-2 receptors, and as such are predicted to be useful as antipsychotic drugs. D-2 antagonism can be shown by standard tests such as antagonism of [^3 H]-spiperone binding (Test A), and/or antagonism of apomorphine-induced climbing and apomorphine- induced disruption of swimming (Test B).
The receptor binding assay used to measure affinities of various compounds for the dopamine (DA) D-2 receptor subtype was that described by Saller and Salama in J Pharmacol Exp Ther 236, page 714, 1986.
Specifically, rat striatal membranes were used. Tissue membranes were prepared and washed once in 50 volumes of the appropriate Tris HCl buffer. For the D-2 receptor binding assay, striatal membranes were suspended to a final concentration of 8 mg/ml in 50 mM Tris HCl with 40 nM ketanserin, pH 7.7. Nonspecific binding to D-2 receptors was measured in the presence of 1.0 μM (+)-butaclamol. IC50 s (drug concentration which produced a 50% displacement) for the displacement of 0.5 nM [^3 H] spiperone were determined using at least five concentrations of each drug in triplicate. One-half milliliter of membrane suspension was incubated with the compound of interest or vehicle or nonspecific drug, ligand and appropriate Tris HCl buffer. The final reaction volume totaled 1 ml for each tube and was incubated at 37° C. for 15 min to facilitate binding and ensure equilibrium had been met. A Brandel filtering system equipped with GF/B filters was used to separate bound from free drug. The amount of drug bound to the membranes was assessed using liquid scintillation counting techniques. IC50 values were obtained from a least squares regression of a logit-log transformation of the data. Typical values in this test were, for example, 103 nM (nanomolar) for the compound of Example 6, 84 nM for the compound of Example 15, and 15 nM for the compound of Example 21.

[2] = test system: apomorphine-induced climbing and apomorphine-induced disruption of swimming; assay: Test B: antagonism of apomorphine-induced climbing and apomorphine-induced disruption of swimming; assay type: in vivo; settings: Mus musculus; oral, female Swiss-Webster mice, 30 min before apomorphine HCl 1.25 mg/kg sc; typical values; read-out: minimum effective dose (decrease in climbing score accompanied by increase in swimming score)
Procedure: as §1
Female Swiss-Webster mice weighing approximately 20 g were deprived of food for approximately 24 h and then dosed orally with various doses of either the vehicle or test agent over a range of doses (N=20 mice per treatment group). Thirty minutes later they were dosed with apomorphine HCl at 1.25 mg/kg, sc, and placed into climbing cages. The climbing cages were 9 cm wide, 15 cm deep and 30 cm high. One wall had 27 horizontal rungs spaced 1 cm apart. Thirteen minutes after apomorphine each mouse was observed continuously for 1 min and the highest and lowest rung reached by its front paws was recorded. The mean of these two scores was used as the score for that mouse. (The highest and lowest scores were 27 and 0, respectively.) Immediately after the 1-min climbing observation period each mouse was placed into a circular swimming tank for 2 min and the number of swims was counted. The height of the tank was 15 cm and the diameter was 28 cm. A circular obstacle measuring 10.5 cm in diameter and having a height of 17 cm was placed into the center of the tank, creating a circular swimming channel 8.75 cm wide. The water level was 5.5 cm and the water was kept at room temperature. Marks were placed on the floor and side of the tank 180 degrees apart. A "swim" was scored each time a mouse swam from one mark to the other. The mice were observed through overhead mirrors and the number of 180 degree swims was recorded for each mouse. Activity in this test was indicated by a decrease in the climbing score accompanied by an increase in the swimming score at a given dose of the test compound. Typical values of minimum effective doses in this test were 10 mg/kg for the compound of Example 6 and 20 mg/kg for each of the compounds of Examples 15 and 21.

Row | Compound | IC50 [1] | minimal effective dose [2]
1 | COc1cccc(C(O)C2CCN(CC34CC(c5ccccc53)c3ccc(Cl)cc34)CC2)c1 (racemic) [Example 15, (R,S)-1-[1-((9RS,10RS)-2-Chloro-9,10-dihydro-9,10-methanoanthracen-9-ylmethyl)-4-piperidyl]-1-(3-methoxyphenyl)methanol] | 84 nM | 20 mg/kg
2 | COc1ccc(C(O)C2CCN(CC34CC(c5ccccc53)c3ccc(Cl)cc34)CC2)cc1 (racemic) [Example 21, (R,S)-1-[1-((9RS, 10RS)-2-Chloro-9,10-dihydro-9,10-methanoanthracen-9-ylmethyl)-4-piperidyl]-1-(4-methoxyphenyl)methanol] | 15 nM | 20 mg/kg
3 | OC(c1cccnc1)C1CCN(CC23CC(c4ccccc42)c2ccccc23)CC1 (stereo not drawn) [Example 6, 1-[1-(9,10-Dihydro-9,10-methanoanthracen-9-ylmethyl)-4-piperidyl]-1-(3-pyridyl)methanol] | 103 nM | 10 mg/kg
